Measured values: patent publication US20080182978A1, “ANTI-NGF ANTIBODIES AND METHODS USING SAME” (RINAT NEUROSCIENCE CORP, priority 2002, published 2008)

Assays:
Format in all cases: in vivo, rat
[1] = CFA arthritis rats, hematological parameters; conditions: for effect on blood parameters compared to vehicle-treated arthritic group: E3 1 mg/kg or 911 10 mg/kg i.v. D14+D19, indomethacin 3 mg/kg/day p.o. 10 days; for Hematocrit / Hemoglobin / Platelets / Red blood cells / White blood cells: arthritic rats, E3 1 mg/kg or 911 10 mg/kg i.v. D14+D19, indomethacin 3 mg/kg p.o. over 10 days, D24
Method: (§1) On Day 24 (after paw volume and arthritis index measurements and test vocalization), under general anaesthesia using isoflurane (in a mixture of oxygen and nitrous oxide), the blood samples (about 800-1000 μl) was collected by capillary action with a micropipette from retroorbital sinus.
Blood collection for hematological parameters (groups 1-2-3-4-5: 50 vials): A part of blood sample was collected in tubes containing K3—EDTA (at least 100 μL). The determination of parameters were performed on the day of the collection and the samples were not stored. The hematological parameters including red blood cells, white blood cells, platelets, hemoglobin, hematocrit were measured with a hematology cell counter (D 24). Some hematological parameters were not measured due to the clotted samples (vehicle-freated non arthritic rat: #10; E3-treated arthritic rats: #59, #67; 911-treated arthritic rats: #16).

[2] = system: complete Freund's adjuvant (CFA)-induced chronic arthritis; test: CFA arthritis rats, hindpaw weight; conditions: arthritic rats; E3 1 mg/kg or 911 10 mg/kg i.v. D14+D19, indomethacin 3 mg/kg p.o. over 10 days; D24
Method: On Day 24 (5 days after the last i.v. bolus injection or 24 hours after the last p.o. administration) (after X-rays radiographies), each animal hindpaw (arthritic and non arthritic rats) was weighed and was collected in a labelled polyethylene vial. Tissue samples were frozen in liquid nitrogen and stored at −80° C.
(§2) All results were reported as Mean ±S.E.M. of 10 rats in each group at each time point. Paw volume was expressed in ml calculated from the mean value of the right and left paw volume. Arthritis index was calculated from the sum of the score obtained for each of the 4 paws. The nociceptive response was evaluated by the intensity of the level of vocalization recorded for each animal (mean of 4 values: 2 times/paw) in mV. The percentage inhibition of the nociceptive response was calculated from the mean value of the vehicle-treated arthritic group [(mean value of vehicle-treated arthritic group−mean value of treated arthritic group/mean value of vehicle-treated arthritic group)*100]. Body weight was expressed in grams. Hindpaws (left and right) weight was expressed in grams. Cytokine levels (IL-6, IL-1β, TNF-α and TGF-β1) of each hind paw was expressed in pg/ml. Circulating levels of TGF-β1 was expressed in pg/ml. Radiological index for each parameter (demineralization, erosions, periostal reaction, soft tissue damage, space joint, osteogenesis deformity) and total radiological index (total score) were calculated from the sum of the scores obtained for each parameter. The inter-group significances of the deviations between the values of vehicle-treated group (arthritic rats) and vehicle-treated group (non arthritic rats) were assessed by the Student t test or Mann-Whitney Rank Sum Test when equal variance or normality test failed. The inter-group significances of the deviations between the values of vehicle-treated group (arthritic rats) and E3- and 911- and Indomethacin-treated groups were assessed by the 1-way analysis of variance ANOVA followed by the non-paired Dunnett t test. A probability of P<0.05 was considered as significant. All statistical analysis was performed by the Sigmastat™ software.

[3] = system: complete Freund's adjuvant (CFA)-induced chronic arthritis; test: CFA arthritis rats, paw volume (plethysmometer); conditions: for change of paw volume compared to vehicle-treated arthritic group: E3 1 mg/kg or 911 10 mg/kg i.v. D14+D19, indomethacin 3 mg/kg/day p.o.; for paw volume (mean of right and left hindpaw): arthritic rats
Method: Five groups of 10 animals (5-weeks old male Lewis rats-LEWIS Lew/Ico, from Charles River Laboratories—Belgium) each were included in this study: Group 1: non arthritic rats/saline (vehicle), i.v. bolus, n=10; Group 2: arthritic rats/saline (vehicle), i.v. bolus, n=10; Group 3: arthritic rats/Indomethacin 3 mg/kg, p.o daily over 10 days, n=10; […]; Group 5: arthritic rats/911, 10 mg/kg, i.v. bolus, n=10. The doses were expressed in terms of free active substance (mg/kg). E3 and 911 were extemporaneously prepared in saline from the stock solution to the desired concentration. […]. All diluted solutions (before i.v. injection) were sterilized using a sterile filter unit of 0.20.μm. pH and osmolarity values of diluted solutions were measured before each i.v. injection. Before the first i.v., osmolarity (mosm/L) for saline, E3, and 911 were 278, 269, and 308 respectively; pH for saline, E3, and 911 were 5.93, 6.76, 6.71 respectively. Before the second i.v., osmolarity (mosm/L) for saline, E3, and 911 were 280, 270, and 309 respectively; pH for saline, E3, and 911 were 5.86, 6.72, and 6.59 respectively.
E3 or 911 or saline were administered by i.v. bolus injection on Day 14 and Day 19 after arthritis induction in a coded and random order with a volume of 5 mL/kg. The non arthritic group was given by i.v. bolus injection of saline on Day 14 and Day 19 with a volume of 5 mL/kg. Indomethacin was extemporaneously prepared in 1% methylcellulose. Indomethacin was administered by oral route (p.o.) once daily over 10 days from Day 14 to Day 23 after arthritis induction in a coded and random order with a volume of 10 mL/kg.
The right and left hindpaw volume of each rat (arthritic and non arthritic rats) was measured using a plethysmometer. The measurements were performed at the following times (after induction of arthritis): Day 14 (before i.v. bolus or p.o. administration); and Day 24 (5 days after the last i.v. bolus injection or 24 h after the last p.o. administration). All measurements were performed between 9:00 and 12:00 am. All the data were collected and stored by the WinDas software.
as §2

TGF-β1 = test: CFA arthritis rats, circulating TGF-β1 in serum (ELISA); conditions: D24; for serum TGF-β1 level: arthritic rats, E3 1 mg/kg or 911 10 mg/kg i.v. D14+D19, indomethacin 3 mg/kg p.o.
Method: as §1
Measurement of circulating TGF-β1 (groups 1-2-3-4-5): A part of blood sample was collected in micro tubes for serum preparation at ambient temperature. Following sample collection, blood was mixed and allowed to clot for 30 minutes prior to the centrifugation. The tubes were centrifuged at about 6000 g for 3 minutes. Each serum sample (at least 100 μL, except for rat #52 and #53) was aliquoted and stored at −20° C. until sample activation for TGF-β1 analysis. These aliquots (50 vials) were kept for a period of 6 months starting from the end of the study. […] TGF-β1 levels were measured using human TGF-β1 ELISA kit (ref. DB100, Batch 212258 and 213610, R&D Systems—France).
All results were reported as Mean ±S.E.M. of 10 rats in each group at each time point. Paw volume was expressed in ml calculated from the mean value of the right and left paw volume. Arthritis index was calculated from the sum of the score obtained for each of the 4 paws. The nociceptive response was evaluated by the intensity of the level of vocalization recorded for each animal (mean of 4 values: 2 times/paw) in mV. The percentage inhibition of the nociceptive response was calculated from the mean value of the vehicle-treated arthritic group [(mean value of vehicle-treated arthritic group−mean value of treated arthritic group/mean value of vehicle-treated arthritic group)*100]. […] Radiological index for each parameter (demineralization, erosions, periostal reaction, soft tissue damage, space joint, osteogenesis deformity) and total radiological index (total score) were calculated from the sum of the scores obtained for each parameter. […]

[4] = E3 1 mg/kg or 911 10 mg/kg i.v. D14+D19, indomethacin 3 mg/kg/day p.o. 10 days, D24

| Molecule | effect on blood parameters compared to vehicle-treated arthritic group [1] | Hematocrit [1] [%] | Hemoglobin [1] [g/dL] | Platelets [1] | Red blood cells [1] | White blood cells [1] | left hindpaw weight [2] [grams] | right hindpaw weight [2] [grams] | change of paw volume compared to vehicle-treated arthritic group ([3]; D24) | paw volume (mean of right and left hindpaw) ([3]; D14 (before dosing)) [mL] | paw volume (mean of right and left hindpaw) [3, 4] [mL] | serum TGF-β1 level (TGF-β1) [pg/mL] | decrease of serum TGF-β1 level compared to vehicle-treated arthritic group (TGF-β1; indomethacin 3 mg/kg/day p.o. 10 days) |
| --- | --- | --- | --- | --- | --- | --- | --- | --- | --- | --- | --- | --- | --- |
| COc1ccc2c(c1)c(CC(=O)O)c(C)n2C(=O)c1ccc(Cl)cc1 [Indomethacin, reference compound] | did not affect the blood parameters | 35.0 ± 1.5 | 11.8 ± 0.6 | 705 ± 111 10^3/mm^3 | 6.93 ± 0.31 10^6/mm^3 | 21.7 ± 2.5 10^3/mm^3 | 2.23±0.04 | 2.20±0.05 | about −0.75 mL | 2.08 ± 0.06 | 1.59 ± 0.03 | 57222.2 ± 3194.1 | about 1.5 times |
| E3: humanized, affinity matured anti-NGF antagonist antibody; variable regions SEQ ID NO:1 and 2; human IgG2a (A330P331 to S330S331), kappa (antibody, V domains shown, human IgG2a constant (A330S/P331S) and kappa constant missing) VH: QVQLQESGPGLVKPSETLSLTCTVSGFSLIGYDLNWIRQPPGKGLEWIGIIWGDGTTDYNSAVKSRVTISKDTSKNQFSLKLSSVTAADTAVYYCARGGYWYATSYYFDYWGQGTLVTVS VL: DIQMTQSPSSLSASVGDRVTITCRASQSISNNLNWYQQKPGKAPKLLIYYTSRFHSGVPSRFSGSGSGTDFTFTISSLQPEDIATYYCQQEHTLPYTFGQGTKLEIKRT | did not affect the blood parameters | 38.5 ± 1.0 | 12.9 ± 0.3 | 827 ± 77 10^3/mm^3 | 7.74 ± 0.17 10^6/mm^3 | 19.1 ± 1.2 10^3/mm^3 | 3.86±0.14 | 3.72±0.13 | about 0.37 mL | 2.06 ± 0.03 | 2.71 ± 0.09 | 69408.8 ± 3926.7 |  |
